From US10947210B2 (priority 2015, dated 2021)

Target: HCV RNA-dependent RNA polymerase (NS5B) (Hepatitis C virus genotype 1b (isolate BK) (HCV), UniProt P26663)
Test: RNA-Dependent RNA HCV NS5B (polymerase) Assay and IC50 Determination
Type: biochemical
Settings: purified HCV NS5B polymerase, polyA:U16 substrate, 32P-UTP incorporation; read-out: IC50
Experimental: RNA-Dependent RNA HCV NS5B (polymerase) Assay and IC50 Determination.
The reaction mixtures consisted of 50 mM Hepes-KOH, pH 7.5, 5 mM MgCl2, 5 mM DTT, 2% glycerol, 0.01% Triton® X-100, 0.5 uM polyA:U16 substrate, purified HCV RNA-dependent RNA polymerase, 10 μM UTP, and ^32P-UTP (Perkin Elmer). The reaction mixtures incubated at 30° C. for 60 minutes, and then filtered through Zeta probe membrane (BioRad). The filter was washed with 5×SSC (75 mM sodium citrate, pH 7 and 750 mM NaCl), and the radiolabeled RNA products were quantitated by microbeta (Perkin Elmer). For IC50 determination, different concentrations of inhibitors were added to the polymerase reaction mixtures, and incubated at 37° C. for 60 minutes. IC50 values were determined using GraFit (Erithaus software).
Table 1 presents IC50 data obtained using the biochemical assay to test representative compounds. Data are presented as follows: “+++” means <0.1 μM; “++” means ≥0.1 μM but <1.0 μM; “+” means ≥1.0 μM.

Sequence of HCV RNA-dependent RNA polymerase (NS5B) (P26663 2420-3010): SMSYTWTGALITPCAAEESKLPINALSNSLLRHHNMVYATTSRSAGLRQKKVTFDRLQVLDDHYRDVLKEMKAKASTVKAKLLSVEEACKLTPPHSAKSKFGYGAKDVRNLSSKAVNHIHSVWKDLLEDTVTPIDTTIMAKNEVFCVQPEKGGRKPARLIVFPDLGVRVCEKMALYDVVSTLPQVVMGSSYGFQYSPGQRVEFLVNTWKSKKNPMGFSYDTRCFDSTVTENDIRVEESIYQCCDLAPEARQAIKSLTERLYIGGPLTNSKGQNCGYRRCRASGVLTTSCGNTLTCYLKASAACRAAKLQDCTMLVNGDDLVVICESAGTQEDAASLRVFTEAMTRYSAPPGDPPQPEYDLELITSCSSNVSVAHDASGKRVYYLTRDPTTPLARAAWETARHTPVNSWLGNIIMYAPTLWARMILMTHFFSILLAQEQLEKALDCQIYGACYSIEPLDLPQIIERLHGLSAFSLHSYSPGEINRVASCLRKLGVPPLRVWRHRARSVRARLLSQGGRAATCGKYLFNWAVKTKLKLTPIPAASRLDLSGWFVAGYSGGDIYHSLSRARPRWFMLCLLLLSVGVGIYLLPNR

Compound | IC50 [nM]
CNC(=O)c1c(-c2ccc(F)cc2)oc2cc(N(CCOCCOCc3ccc(C(=O)O)c([N+](=O)[O-])c3)S(C)(=O)=O)c(C3CC3)cc12 [Compound 29-8, 4-[2-(2-{[5-Cyclopropyl-2-(4-fluoro-phenyl)-3-methylcarbamoyl-benzofuran-6-yl]-methanesulfonyl-amino}-ethoxy)-ethoxymethyl]-2-nitro-benzoic Acid] | 100 to 1000
CNC(=O)c1c(-c2ccc(F)cc2)oc2cc(N(CCOCCOCc3ccc(C(=O)OCSC)cc3)S(C)(=O)=O)c(C3CC3)cc12 [Compound 06-8B6, 4-[2-(2-{[5-Cyclopropyl-2-(4-fluoro-phenyl)-3-methylcarbamoyl-benzofuran-6-yl]-methanesulfonyl-amino}-ethoxy)-ethoxymethyl]-benzoic Acid Methylsulfanylmethyl Ester] | 100 to 1000
CNC(=O)c1c(-c2ccc(F)cc2)oc2cc(N(CCCOCCOCc3cccc(C(C)=O)c3)S(C)(=O)=O)c(C3CC3)cc12 [Compound 03-6A, 6-(N-(3-(2-((3-acetylbenzyl)-oxy)-ethoxy)-propyl)-methylsulfonamido)-5-cyclopropyl-2-(4-fluorophenyl)-N-methylbenzofuran-3-carboxamide] | > 1000
CNC(=O)c1c(-c2ccc(F)cc2)oc2cc(N(CC(=O)N(C)CC(=O)NCc3cccc(C(=O)C=C(O)C(=O)O)c3)S(C)(=O)=O)c(C3CC3)cc12 [Compound 09-14B, 4-[3-({2-[(2-{[5-Cyclopropyl-2-(4-fluoro-phenyl)-3-methylcarbamoyl-benzofuran-6-yl]-methanesulfonyl-amino}-acetyl)-methyl-amino]-acetylamino}-methyl)-phenyl]-2-hydroxy-4-oxo-but-2-enoic acid] | > 1000
CNC(=O)c1c(-c2ccc(F)cc2)oc2cc(N(CCOCCOCCc3cccc(C(=O)O)c3)S(C)(=O)=O)c(C3CC3)cc12 [Compound 11-6B, 3-{2-[2-(2-{[5-Cyclopropyl-2-(4-fluoro-phenyl)-3-methylcarbamoyl-benzofuran-6-yl]-methanesulfonyl-amino}-ethoxy)-ethoxy]-ethyl}-benzoic Acid] | < 100
CNC(=O)c1c(-c2ccc(F)cc2)oc2cc(N(CCOCCOCCOCCOCc3ccc(C(C)=O)cc3)S(C)(=O)=O)c(C3CC3)cc12 [Compound 02-8H, 6-{[2-(2-{2-[2-(4-Acetyl-benzyloxy)-ethoxy]-ethoxy}-ethoxy)-ethyl]-methanesulfonyl-amino}-5-cyclopropyl-2-(4-fluoro-phenyl)-benzofuran-3-carboxylic Acid Methylamide] | > 1000
CCOC(=O)c1ccccc1OCCOCCOCCN(c1cc2oc(-c3ccc(F)cc3)c(C(=O)NC)c2cc1C1CC1)S(C)(=O)=O [Compound 14-6A, 2-{2-[2-(2-{[5-Cyclopropyl-2-(4-fluoro-phenyl)-3-methylcarbamoyl-benzofuran-6-yl]-methanesulfonyl-amino}-ethoxy)-ethoxy]-ethoxy}-benzoic Acid Ethyl Ester] | 100 to 1000
CNC(=O)c1c(-c2ccc(F)cc2)oc2cc(N(CCCOCCCc3ccc(C(=O)OC)cc3)S(C)(=O)=O)c(C3CC3)cc12 [Compound 13-7B, 4-[3-(3-{[5-Cyclopropyl-2-(4-fluoro-phenyl)-3-methylcarbamoyl-benzofuran-6-yl]-methanesulfonyl-amino}-propoxy)-propyl]-benzoic Acid Methyl Ester] | 100 to 1000
CNC(=O)c1c(-c2ccc(F)cc2)oc2cc(N(CCCCOCCc3ccc(C(=O)OC)cc3)S(C)(=O)=O)c(C3CC3)cc12 [Compound 13-7C, 4-[2-(4-{[5-Cyclopropyl-2-(4-fluoro-phenyl)-3-methylcarbamoyl-benzofuran-6-yl]-methanesulfonyl-amino}-butoxy)-ethyl]-benzoic Acid Methyl Ester] | 100 to 1000
CNC(=O)c1c(-c2ccc(F)cc2)oc2cc(N(CCCCCCOc3ccc(C(=O)O)cc3)S(C)(=O)=O)c(C3CC3)cc12 [Compound 15-8, 4-(6-{[5-Cyclopropyl-2-(4-fluoro-phenyl)-3-methylcarbamoyl-benzofuran-6-yl]-methanesulfonyl-amino}-hexyloxy)-benzoic Acid] | 100 to 1000
CNC(=O)c1c(-c2ccc(F)cc2)oc2cc(N(CCOCCOCCOCCN)S(C)(=O)=O)c(C3CC3)cc12 [Compound 04-10, 6-(N-(2-(2-(2-(2-Aminoethoxy)-ethoxy)-ethoxy)-ethyl)-methylsulfonamido)-5-cyclopropyl-2-(4-fluorophenyl)-N-methylbenzofuran-3-carboxamide] | > 1000
CNC(=O)c1c(-c2ccc(F)cc2)oc2cc(N(CCOCCOCc3ccc(C(=O)OCC(N)=O)cc3)S(C)(=O)=O)c(C3CC3)cc12 [Compound 06-8B5, 4-[2-(2-{[5-Cyclopropyl-2-(4-fluoro-phenyl)-3-methylcarbamoyl-benzofuran-6-yl]-methanesulfonyl-amino}-ethoxy)-ethoxymethyl]-benzoic Acid Carbamoylmethyl Ester] | 100 to 1000
CCCCOCCOCCOCCN(c1cc2oc(-c3ccc(F)cc3)c(C(=O)NC)c2cc1C1CC1)S(C)(=O)=O [Compound 05-4B, 6-({2-[2-(2-Butoxy-ethoxy)-ethoxy]-ethyl}-methanesulfonyl-amino)-5-cyclopropyl-2-(4-fluoro-phenyl)-benzofuran-3-carboxylic Acid Methylamide] | > 1000
CNC(=O)c1c(-c2ccc(F)cc2)oc2cc(N(CCOCCOCc3ccc(F)c(C(=O)NO)c3)S(C)(=O)=O)c(C3CC3)cc12 [Compound 17A-8B, 5-Cyclopropyl-6-({2-[2-(4-fluoro-3-hydroxycarbamoyl-benzyloxy)-ethoxy]-ethyl}-methanesulfonyl-amino)-2-(4-fluoro-phenyl)-benzofuran-3-carboxylic Acid Methylamide] | > 1000
CNC(=O)c1c(-c2ccc(F)cc2)oc2cc(N(CCOCCOCCCc3ccc(C(=O)O)cc3)S(C)(=O)=O)c(C3CC3)cc12 [Compound 12-7C, 4-{3-[2-(2-{[5-Cyclopropyl-2-(4-fluoro-phenyl)-3-methylcarbamoyl-benzofuran-6-yl]-methanesulfonyl-amino}-ethoxy)-ethoxy]-propyl}-benzoic Acid] | 100 to 1000
CNC(=O)c1c(-c2ccc(F)cc2)oc2cc(N(CCOCCCCCOCC(=O)OC(C)(C)C)S(C)(=O)=O)c(C3CC3)cc12 [Compound 27-8A, [5-(2-{[5-Cyclopropyl-2-(4-fluoro-phenyl)-3-methylcarbamoyl-benzofuran-6-yl]-methanesulfonyl-amino}-ethoxy)-pentyloxy]-acetic Acid Tert-butyl Ester] | > 1000
CNC(=O)c1c(-c2ccc(F)cc2)oc2cc(N(CCOCCOCc3ccc(C(C)=O)cc3)S(C)(=O)=O)c(C3CC3)cc12 [Compound 02-8F, 6-({2-[2-(4-Acetyl-benzyloxy)-ethoxy]-ethyl}-methanesulfonyl-amino)-5-cyclopropyl-2-(4-fluoro-phenyl)-benzofuran-3-carboxylic Acid Methylamide] | > 1000
CNC(=O)c1c(-c2ccc(F)cc2)oc2cc(N(CCCCCCCc3ccc(C(=O)OC)cc3)S(C)(=O)=O)c(C3CC3)cc12 [Compound 13-7D, 4-(7-{[5-Cyclopropyl-2-(4-fluoro-phenyl)-3-methylcarbamoyl-benzofuran-6-yl]-methanesulfonyl-amino}-heptyl)-benzoic Acid Methyl Ester] | 100 to 1000
CNC(=O)c1c(-c2ccc(F)cc2)oc2cc(N(CCOCCOCCOC(C)(C)C(=O)NO)S(C)(=O)=O)c(C3CC3)cc12 [Compound 26-8B, 5-Cyclopropyl-2-(4-fluoro-phenyl)-6-[(2-{2-[2-(1-hydroxycarbamoyl-1-methyl-ethoxy)-ethoxy]-ethoxy}-ethyl)-methanesulfonyl-amino]-benzofuran-3-carboxylic Acid Methylamide] | > 1000
CNC(=O)c1c(-c2ccc(F)cc2)oc2cc(N(CCOCCOCCOCC(C)=O)S(C)(=O)=O)c(C3CC3)cc12 [Compound 30-1, 5-Cyclopropyl-2-(4-fluoro-phenyl)-6-[methanesulfonyl-(2-{2-[2-(2-oxo-propoxy)-ethoxy]-ethoxy}-ethyl)-amino]-benzofuran-3-carboxylic acid methylamide] | > 1000
CNC(=O)c1c(-c2ccc(F)cc2)oc2cc(N(CC(=O)NCC(=O)NCCCC(C)C(=O)OC)S(C)(=O)=O)c(C3CC3)cc12 (centres unmarked) [Compound 10-3B, 5-[2-(2-{[5-Cyclopropyl-2-(4-fluoro-phenyl)-3-methylcarbamoyl-benzofuran-6-yl]-methanesulfonyl-amino}-acetylamino)-acetylamino]-2-methyl-pentanoic Acid Methyl Ester] | > 1000
CCOC(=O)c1cccc(OCCOCCOCCN(c2cc3oc(-c4ccc(F)cc4)c(C(=O)NC)c3cc2C2CC2)S(C)(=O)=O)c1 [Compound 14-6B, 3-{2-[2-(2-{[5-Cyclopropyl-2-(4-fluoro-phenyl)-3-methylcarbamoyl-benzofuran-6-yl]-methanesulfonyl-amino}-ethoxy)-ethoxy]-ethoxy}-benzoic Acid Ethyl Ester] | > 1000
CNC(=O)c1c(-c2ccc(F)cc2)oc2cc(N(CCOCCOCCOCCOCc3cccc(C(=O)O)c3)S(C)(=O)=O)c(C3CC3)cc12 [Compound 30-4, 3-(2-{2-[2-(2-{[5-Cyclopropyl-2-(4-fluoro-phenyl)-3-methylcarbamoyl-benzofuran-6-yl]-methanesulfonyl-amino}-ethoxy)-ethoxy]-ethoxy}-ethoxymethyl)-benzoic acid] | > 1000
